Results from patent US20080026996A1, “Selective Vpac2 Receptor Reptide Agonists” (ELI LILLY AND COMPANY, priority 2004, published 2008).
Where a SMILES comes first, the peptide text is derived from it. Where no end group is shown, it is not given here. [ ]: non-standard residue; d: D form. The star is where a group is joined. Hexanoyl = CCCCCC(=O)*; Aib = CC(C)(N)C(=O)O

Columns and labels:
human VPAC2 [1] = target: T1, human VPAC2 (Homo sapiens, UniProt P41587); experiment: Filter binding assay, membranes of stable VPAC2 cell line, 125I-labeled VIP tracer (Table 2); details: read-out: Human VPAC2 Receptor Binding
T1 construct: expressed in transfected cells
T1 sequence (P41587 24-438): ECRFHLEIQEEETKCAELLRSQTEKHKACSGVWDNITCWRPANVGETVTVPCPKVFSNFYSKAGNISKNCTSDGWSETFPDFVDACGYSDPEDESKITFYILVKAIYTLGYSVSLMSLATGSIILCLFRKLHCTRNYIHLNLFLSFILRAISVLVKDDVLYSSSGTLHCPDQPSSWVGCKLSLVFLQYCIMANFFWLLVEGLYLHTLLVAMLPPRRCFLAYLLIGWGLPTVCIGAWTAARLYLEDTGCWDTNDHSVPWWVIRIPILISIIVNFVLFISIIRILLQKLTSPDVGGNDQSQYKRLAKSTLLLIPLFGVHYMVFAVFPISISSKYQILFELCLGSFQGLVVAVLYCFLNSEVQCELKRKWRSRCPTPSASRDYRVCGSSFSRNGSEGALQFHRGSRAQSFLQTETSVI
How it was run: (§1)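 Scintillation counting of filter-retained radioligand gave the read-out. Compounds competed with the labelled tracer (about 40000 cpm) for 2.5 μg membranes during 1 hour of shaking in HEPES pH 7.4 buffer containing 0.5% BSA.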

human PAC1 = target: T2, human PAC1 (Homo sapiens, UniProt P41586); experiment: Filter binding assay, membranes of cells transiently transfected with human PAC1, 125I-labeled PACAP-27 tracer (Table 2); design: expressed in transfected cells; details: read-out: Human PAC1 Receptor Binding
T2 sequence (P41586 21-468): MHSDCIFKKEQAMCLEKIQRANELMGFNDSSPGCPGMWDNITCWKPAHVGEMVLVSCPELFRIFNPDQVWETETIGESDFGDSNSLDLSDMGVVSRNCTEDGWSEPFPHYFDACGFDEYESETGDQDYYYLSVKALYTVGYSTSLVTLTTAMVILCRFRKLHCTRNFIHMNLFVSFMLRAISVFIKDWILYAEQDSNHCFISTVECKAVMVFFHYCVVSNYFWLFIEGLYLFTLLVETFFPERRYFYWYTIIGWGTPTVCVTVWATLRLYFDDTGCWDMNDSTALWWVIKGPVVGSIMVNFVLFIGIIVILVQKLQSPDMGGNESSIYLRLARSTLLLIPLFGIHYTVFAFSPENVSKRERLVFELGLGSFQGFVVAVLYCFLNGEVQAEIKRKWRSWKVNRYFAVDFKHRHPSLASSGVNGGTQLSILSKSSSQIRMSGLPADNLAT
How it was run: as §1

[2] = Rat serum stability studies (remaining active peptide by DiscoveRx cAMP on CHO-VPAC2 cells); type: in vitro ADME
How it was run: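 Rat serum, 18 h: +aprotinin aliquot at 4° C, no-aprotinin aliquot at 37° C. Then 30 min RT step, supernatant removed, 1 h shaking at 300 rpm. DiscoveRx cAMP kit on CHO-VPAC2; EC50 from cAMP data vs standards.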

human VPAC1 = target: T3, human VPAC1 (Homo sapiens, UniProt P32241); experiment: Filter binding assay, membranes of cells transiently transfected with human VPAC1, 125I-labeled VIP tracer (Table 2); design: expressed in transfected cells; details: read-out: Human VPAC1 Receptor Binding
T3 sequence (P32241 31-457): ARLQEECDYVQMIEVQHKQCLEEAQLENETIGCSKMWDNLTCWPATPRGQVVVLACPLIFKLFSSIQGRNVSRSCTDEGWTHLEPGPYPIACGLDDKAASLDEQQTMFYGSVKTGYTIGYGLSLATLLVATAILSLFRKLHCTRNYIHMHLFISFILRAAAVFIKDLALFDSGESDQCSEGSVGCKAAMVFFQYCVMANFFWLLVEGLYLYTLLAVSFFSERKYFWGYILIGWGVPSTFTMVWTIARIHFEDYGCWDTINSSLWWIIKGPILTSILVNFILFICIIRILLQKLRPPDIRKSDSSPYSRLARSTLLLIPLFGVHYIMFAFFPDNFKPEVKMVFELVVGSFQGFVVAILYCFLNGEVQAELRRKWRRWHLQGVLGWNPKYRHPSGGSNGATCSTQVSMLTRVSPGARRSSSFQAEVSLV
How it was run: as §1

human VPAC2 [3] = target: T1, human VPAC2; experiment: Alpha screen cAMP in vitro potency, human VPAC2 receptor; type: cell-based; details: cAMP generation; single result from two analyses performed in a single run; read-out: Human VPAC2 Receptor: Alpha Screen EC50
How it was run: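 Dissociated cells, 50,000 per point in stimulation buffer, were incubated with stimuli and AlphaScreen acceptor beads for 60 min.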

Molecule | IC50 (human VPAC2 [1]) | IC50 (human PAC1) | Rat Serum Stability (estimated purity in % after 18 hours) [2] | IC50 (human VPAC1) | EC50 (human VPAC2 [3]) | Rat Serum Stability (Estimated purity in % after 72 hours) [2]
CCCCCC(=O)N[C@@H](Cc1c[nH]cn1)C(=O)N[C@@H](CO)C(=O)N[C@@H](CC(=O)O)C(=O)N[C@@H](C)C(=O)N[C@H](C(=O)N[C@@H](Cc1ccccc1)C(=O)N[C@H](C(=O)N[C@@H](CC(=O)O)C(=O)N[C@@H](CC(N)=O)C(=O)N[C@@H](Cc1ccc(O)cc1)C(=O)N[C@H](C(=O)N[C@@H](CCCNC(=N)N)C(=O)N[C@@H](CC(C)C)C(=O)N[C@@H](CCCNC(=N)N)C(=O)NC(C)(C)C(=O)N[C@@H](CCC(N)=O)C(=O)N[C@H](C(=O)N[C@@H](C)C(=O)N[C@@H](C)C(=O)N[C@@H](CCCCN)C(=O)NC(C)(C)C(=O)N[C@@H](Cc1ccc(O)cc1)C(=O)N[C@@H](CC(C)C)C(=O)N[C@@H](CCC(N)=O)C(=O)N[C@@H](CO)C(=O)N[C@H](C(=O)N[C@@H](CCCCN)C(=O)N[C@@H](CCC(N)=O)C(=O)N[C@@H](CCCCN)C(=O)NCC(=O)NCC(=O)N1CCC[C@H]1C(=O)N[C@@H](CO)C(=O)N[C@@H](CO)C(=O)NCC(=O)N[C@@H](C)C(=O)N1CCC[C@H]1C(=O)N1CCC[C@H]1C(=O)N1CCC[C@H]1C(=O)N[C@@H](CO)C(=O)O)[C@@H](C)CC)C(C)C)[C@@H](C)O)[C@@H](C)O)C(C)C [Agonist P295] (Hexanoyl-HSDAVFTDNYTRLR[Aib]QVAAK[Aib]YLQSIKQKGGPSSGAPPPS-OH; C-terminus assumed) | 0.75 nM | > 25000 nM | 22.22% | > 3000 nM | 0.39 nM | 
CCCCCC(=O)N[C@@H](Cc1c[nH]cn1)C(=O)N[C@@H](CO)C(=O)N[C@@H](CC(=O)O)C(=O)N[C@@H](C)C(=O)N[C@H](C(=O)N[C@@H](Cc1ccccc1)C(=O)N[C@H](C(=O)N[C@@H](CC(=O)O)C(=O)N[C@@H](CC(N)=O)C(=O)N[C@@H](Cc1ccc(O)cc1)C(=O)N[C@H](C(=O)N[C@@H](CCCNC(=N)N)C(=O)N[C@@H](CC(C)C)C(=O)N[C@@H](CCCNC(=N)N)C(=O)NC(C)(C)C(=O)N[C@@H](CCC(N)=O)C(=O)N[C@H](C(=O)N[C@@H](C)C(=O)N[C@@H](C)C(=O)NC(C)(C)C(=O)N[C@@H](CCCCN)C(=O)N[C@@H](Cc1ccc(O)cc1)C(=O)N[C@@H](CC(C)C)C(=O)N[C@@H](CCC(N)=O)C(=O)N[C@@H](CO)C(=O)N[C@H](C(=O)N[C@@H](CCCCN)C(=O)N[C@@H](CCC(N)=O)C(=O)N[C@@H](CCCCN)C(=O)NCC(=O)NCC(=O)N1CCC[C@H]1C(=O)N[C@@H](CO)C(=O)N[C@@H](CO)C(=O)NCC(=O)N[C@@H](C)C(=O)N1CCC[C@H]1C(=O)N1CCC[C@H]1C(=O)N1CCC[C@H]1C(=O)N[C@@H](CO)C(=O)O)[C@@H](C)CC)C(C)C)[C@@H](C)O)[C@@H](C)O)C(C)C [Agonist P294] (Hexanoyl-HSDAVFTDNYTRLR[Aib]QVAA[Aib]KYLQSIKQKGGPSSGAPPPS-OH; C-terminus assumed) | 0.45 nM | > 25000 nM | 24.25% | > 3000 nM | 0.24 nM | 
CCCCCC(=O)N[C@@H](Cc1c[nH]cn1)C(=O)N[C@@H](CO)C(=O)N[C@@H](CC(=O)O)C(=O)N[C@@H](C)C(=O)N[C@H](C(=O)N[C@@H](Cc1ccccc1)C(=O)N[C@H](C(=O)N[C@@H](CC(=O)O)C(=O)N[C@@H](CC(N)=O)C(=O)N[C@@H](Cc1ccc(O)cc1)C(=O)N[C@H](C(=O)N[C@@H](CCCNC(=N)N)C(=O)N[C@@H](CC(C)C)C(=O)NC(C)(C)C(=O)N[C@@H](CCCCN)C(=O)N[C@@H](CCC(N)=O)C(=O)N[C@H](C(=O)N[C@@H](C)C(=O)N[C@@H](C)C(=O)NC(C)(C)C(=O)N[C@@H](CCCCN)C(=O)N[C@@H](Cc1ccc(O)cc1)C(=O)N[C@@H](CC(C)C)C(=O)N[C@@H](CCC(N)=O)C(=O)N[C@@H](CO)C(=O)N[C@H](C(=O)N[C@@H](CCCCN)C(=O)N[C@@H](CCC(N)=O)C(=O)N[C@@H](CCCCN)C(=O)NCC(=O)NCC(=O)N1CCC[C@H]1C(=O)N[C@@H](CO)C(=O)N[C@@H](CO)C(=O)NCC(=O)N[C@@H](C)C(=O)N1CCC[C@H]1C(=O)N1CCC[C@H]1C(=O)N1CCC[C@H]1C(=O)N[C@@H](CO)C(=O)O)[C@@H](C)CC)C(C)C)[C@@H](C)O)[C@@H](C)O)C(C)C [Agonist P293] (Hexanoyl-HSDAVFTDNYTRL[Aib]KQVAA[Aib]KYLQSIKQKGGPSSGAPPPS-OH; C-terminus assumed) | 16.7 nM | > 25000 nM | 32.70% | > 3000 nM |  | 
Hexanoyl-HSDAVFTDNYTRL[Aib]KQVAAVKYLQSIKNKRYGGPSSGAPPPS [Agonist P269] | 10.1 nM | > 25000 nM | 23.85% | > 3000 nM |  | 
Hexanoyl-HSDAVFTYNYTRLRKQVAAKKYLQSIKNKRYGGPSSGAPPPS [Agonist P163] | 2 nM | 238 nM | <1.25% | 35.7 nM |  | 
Hexanoyl-HSDAVFTDNYTRLRFQVAAKKYLQSIKNKRYGGPSSGAPPPS [Agonist P180] | 5.63 nM | 589 nM | 1.14% | > 3000 nM |  | 
CCCCCC(=O)N[C@@H](Cc1c[nH]cn1)C(=O)N[C@@H](CO)C(=O)N[C@@H](CC(=O)O)C(=O)N[C@@H](C)C(=O)N[C@H](C(=O)N[C@@H](Cc1ccccc1)C(=O)N[C@H](C(=O)N[C@@H](CC(=O)O)C(=O)N[C@@H](CC(N)=O)C(=O)N[C@@H](Cc1ccc(O)cc1)C(=O)N[C@H](C(=O)N[C@@H](CCCNC(=N)N)C(=O)N[C@@H](CC(C)C)C(=O)NC(C)(C)C(=O)N[C@@H](CCCCN)C(=O)N[C@@H](CCC(N)=O)C(=O)N[C@H](C(=O)N[C@@H](C)C(=O)N[C@@H](C)C(=O)NC(C)(C)C(=O)N[C@@H](CCCCN)C(=O)N[C@@H](Cc1ccc(O)cc1)C(=O)N[C@@H](CC(C)C)C(=O)N[C@@H](CCC(N)=O)C(=O)N[C@@H](CO)C(=O)N[C@H](C(=O)N[C@@H](CCCCN)C(=O)N[C@@H](CCC(N)=O)C(=O)NCC(=O)NCC(=O)N1CCC[C@H]1C(=O)N[C@@H](CO)C(=O)N[C@@H](CO)C(=O)NCC(=O)N[C@@H](C)C(=O)N1CCC[C@H]1C(=O)N1CCC[C@H]1C(=O)N1CCC[C@H]1C(=O)N[C@@H](CO)C(=O)O)[C@@H](C)CC)C(C)C)[C@@H](C)O)[C@@H](C)O)C(C)C [Agonist P296] (Hexanoyl-HSDAVFTDNYTRL[Aib]KQVAA[Aib]KYLQSIKQGGPSSGAPPPS-OH; C-terminus assumed) | > 100 nM | > 25000 nM | 42.26% | > 3000 nM |  | 
Hexanoyl-HSDAVFTDNYTRL[Aib]KQVAA[Aib]KYLQSIKNKRYGGPSSGAPPPS [Agonist P242] | 6.78 nM | > 25000 nM | 40.28% | > 3000 nM |  | 3.8%
Hexanoyl-HSDAVFTDNYTRLRKQVAAKKYLQSIKNKRYGGPSSGAPPPC [Agonist P120] | 0.44 nM | 577 nM | 5% |  | 0.06 nM | 
Hexanoyl-HSDAVFTDNYTRLRKQVAAKKILQSIKNKRYGGPSSGAPPPS [Agonist P133] | 5.3 nM | 1940 nM | <2.00% | 470 nM |  | 
Hexanoyl-HSDAVFTDNYTRL[Aib]KQVAAAKYLQSIKNKRYGGPSSGAPPPS [Agonist P260] | 4.79 nM | > 3000 nM | 28.57% | 3320 nM |  | 
